The text below walks through data of patent publication US11548925B2, “CACNA1H-derived tumor antigen polypeptide and use thereof” (Genoimmune Therapeutics Co., Ltd., priority 2016, dated 2023).

In assay [1] the test system is H2087-TLISSLMPI (SEQ ID NO: 2) subcutaneous tumor. The assay can be described thus: Peptide + Freund's adjuvant vaccine in H2087-[…] subcutaneous tumor model. As to conditions: peptide 100 μg/mouse + Freund's adjuvant s.c., 4 immunizations; vs adjuvant alone and wild-type peptide. It is filed as in vivo, NOD/SCID mice. As for the experimental part:
(§1) 600-900 ml of anticoagulated peripheral blood was collected from healthy volunteers for isolating peripheral blood mononuclear cells (PBMCs) via Ficoll. Cells were collected for use. 2×10^7 PBMCs per 0.5 ml was intraperitoneally injected into each of 300 NOD SCID mice without immune leakage to perform human immune reconstitution in NOD SCID mice. After 4 weeks, the mice were selected to be inoculated with the human lung cancer cell line.
The human non-small cell lung adenocarcinoma cell line H2087-[…] (SEQ ID NO: 2) as established in Example 7 was cultured in DMEM medium containing 10% fetal bovine serum, 100 U/mL penicillin and 100 U/mL streptomycin in an incubator at 37° C., 5% CO2. H2087-[…] (SEQ ID NO: 2) tumor cells were collected, centrifuged at 1500 rpm for 5 min, and washed 3 times with sterile physiological saline. The tumor cells were diluted appropriately. […] The long diameter a and the short diameter b of the tumor were measured with a vernier caliper every 2-3 days and the size of the tumor was calculated as a*b*b/2. The mice and tumors were weighed and recorded every day. […] The tumor volume and the survival rate of mice were recorded every 2 days.
The H2087-[…] […] The longest diameter (a) and the shortest diameter (b) of a tumor were measured with a vernier caliper every 2 days. Tumor volume was calculated as: ½×length×width^2. […]

Assay [2] shares this test system. The assay can be described thus: DC peptide vaccine in H2087-[…] subcutaneous tumor model. The assay is classed as in vivo, NOD/SCID mice. As to conditions: DC loaded with peptide, intracutaneous, 2 injections; vs DC loaded with wild-type peptide. As to the method:
as §1
The human non-small cell lung adenocarcinoma cell line H2087-[…] (SEQ ID NO: 2) as established in Example 7 was cultured in DMEM medium containing 10% fetal bovine serum, 100 U/mL penicillin and 100 U/mL streptomycin in an incubator at 37° C., 5% CO2. H2087-[…] […] The long diameter a and the short diameter b of the tumor were measured with a vernier caliper every 2-3 days and the size of the tumor was calculated as a*b*b/2. The mice and tumors were weighed and recorded every day. […] The tumor volume and the survival rate of mice were recorded every 2 days. […]
Tumor-bearing mice were randomly divided into 7 groups: DC loaded with wild-type peptide group, DC loaded with the mutant peptide […] […] After injection, vital signs of the mice were observed, and the vertical and horizontal dimensions of tumors were measured with a vernier caliper every two days. Tumor volume was calculated as follows: tumor volume=½×length×width^2. […]

With “TLISSLMPI [tumor antigen peptide from CACNA1H mutation, position 1428 arginine to methionine]”, in assay [1], the “Survival period of mice” value was “prolonged the survival period of mice” and the Tumor growth entry is “effectively inhibited tumor growth”. Also, in assay [2], the “Survival period of mice” value was “significantly prolonged survival period of mice” and the Tumor growth entry is “slowed down tumor growth in mice”.
